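These data come from cells grown in 96-well plates and exposed to compound for 48 hours at five concentrations. TGI: total growth inhibition.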 Some results are limits rather than exact numbers.

Test systems include HOP-92 NSCLC; SN12C renal; K-562 leukemia; SK-MEL-5 melanoma; NCI-H460 lung; COLO 205 colon; EKVX NSCLC; SF-295 CNS; OVCAR-3 ovarian; OVCAR-4 ovarian; OVCAR-8 ovarian; MOLT-4 leukemia; HCT-116 colon; SW-620 colon; SF-268 CNS; SNB-75 CNS; UACC-62 melanoma; SK-OV-3 ovarian; RXF 393 renal; HOP-62 NSCLC.
What all share (assay): DTP human tumour cell line panel, 48 h

With `CCN1c2ccccc2NC(=S)c2c1n[nH]c2-c1ccccc1`, the TGI (in general, the concentration at which net growth stops) in the test with HOP-92 NSCLC was greater than 100 µM; with SN12C renal it was greater than 100 µM; with K-562 leukemia it was 39.8 µM; with SK-MEL-5 melanoma it was 43.2 µM; in the test on NCI-H460 lung it was 77.2 µM; in the test with COLO 205 colon, greater than 100 µM. Further, the TGI in the test with EKVX NSCLC was greater than 100 µM; in the test with SF-295 CNS, 59.3 µM; in the test with OVCAR-3 ovarian, greater than 100 µM; in the test with OVCAR-4 ovarian, greater than 100 µM; with OVCAR-8 ovarian it was greater than 100 µM; with MOLT-4 leukemia, 38.2 µM. The TGI was greater than 100 µM with HCT-116 colon; 84.7 µM in the test with SW-620 colon; 95.6 µM in the test on SF-268 CNS; greater than 100 µM in the test with SNB-75 CNS; greater than 100 µM with UACC-62 melanoma; greater than 100 µM in the test on SK-OV-3 ovarian. Moreover, the TGI in the test with RXF 393 renal is greater than 100 µM.
Take `CCCCCCSc1nc(N)nc2nc[nH]c12`: the TGI in the test with HOP-92 NSCLC is 72.1 µM; in the test on SN12C renal, greater than 100 µM; in the test on K-562 leukemia it was greater than 100 µM; in the test on SK-MEL-5 melanoma, greater than 62.5 µM; in the test on NCI-H460 lung, greater than 100 µM; in the test with COLO 205 colon, greater than 100 µM. Further, the TGI in the test with EKVX NSCLC, in the test on SF-295 CNS, with OVCAR-3 ovarian, in the test on OVCAR-4 ovarian, in the test on OVCAR-8 ovarian and in the test on MOLT-4 leukemia was greater than 100 µM in each case. Also, the TGI is greater than 100 µM with HCT-116 colon; greater than 100 µM with SW-620 colon; greater than 100 µM in the test with SF-268 CNS; 71.7 µM in the test on SNB-75 CNS; greater than 100 µM in the test on UACC-62 melanoma; 80.8 µM in the test with SK-OV-3 ovarian. Besides, the TGI with RXF 393 renal is greater than 93 µM; in the test with HOP-62 NSCLC, greater than 100 µM.
As for `C/C(=N\Nc1nc2cc(Cl)ccc2s1)c1ccccn1`, the TGI was 15.4 µM with HOP-92 NSCLC; 15.2 µM with SN12C renal; greater than 100 µM with K-562 leukemia; 13.6 µM with SK-MEL-5 melanoma; greater than 100 µM in the test with NCI-H460 lung; greater than 60.4 µM in the test on COLO 205 colon. In addition, the TGI was greater than 35.5 µM with EKVX NSCLC; 7.11 µM with OVCAR-3 ovarian; greater than 100 µM in the test with OVCAR-4 ovarian; greater than 40.4 µM in the test on OVCAR-8 ovarian; greater than 100 µM in the test with MOLT-4 leukemia; greater than 100 µM in the test with HCT-116 colon. For the same compound, the TGI with SW-620 colon was 23.7 µM; with SF-268 CNS, 34.1 µM; in the test on SNB-75 CNS it was 31.3 µM; in the test with UACC-62 melanoma, 10.1 µM; in the test with SK-OV-3 ovarian, 33.6 µM; in the test on HOP-62 NSCLC it was 11.1 µM.
Turning to `COC1/C=C/C=C(/C)Cc2cc(O)c(Cl)c(c2)N(C)C(=O)CC(OC(=O)C(C)C)C2(C)OC2C(C)C2CC1(O)NC(=O)O2` (stereo not drawn), the TGI was greater than 100 µM with HOP-92 NSCLC; greater than 44.7 µM in the test with SN12C renal; greater than 100 µM with K-562 leukemia; less than 0.0116 µM in the test on SK-MEL-5 melanoma; 0.0104 µM with COLO 205 colon; greater than 100 µM with EKVX NSCLC. For the same compound, the TGI is greater than 100 µM in the test on SF-295 CNS; greater than 100 µM in the test with OVCAR-3 ovarian; less than 0.01 µM with OVCAR-4 ovarian; greater than 100 µM in the test with OVCAR-8 ovarian; greater than 100 µM in the test with MOLT-4 leukemia; greater than 100 µM with HCT-116 colon. In addition, the TGI was greater than 100 µM with SW-620 colon; 44.2 µM with SF-268 CNS; 2.08 µM in the test on SNB-75 CNS; greater than 100 µM in the test with UACC-62 melanoma; greater than 100 µM in the test on SK-OV-3 ovarian; greater than 100 µM with RXF 393 renal. The compound also registered a TGI with HOP-62 NSCLC greater than 100 µM.
Turning to `CCOC(=O)c1nc2ccc(OC)cc2c2c1Cc1ccccc1-2`, the TGI in the test on SN12C renal, with K-562 leukemia, in the test on SK-MEL-5 melanoma, in the test with NCI-H460 lung, in the test on COLO 205 colon and with SF-295 CNS was greater than 100 µM each time. Besides, the TGI with OVCAR-3 ovarian, in the test on OVCAR-4 ovarian, with OVCAR-8 ovarian, in the test with MOLT-4 leukemia, with HCT-116 colon and with SW-620 colon was greater than 100 µM throughout. Also, the TGI in the test on SF-268 CNS was greater than 100 µM; in the test with SNB-75 CNS it was greater than 100 µM; in the test on UACC-62 melanoma, greater than 100 µM; in the test on RXF 393 renal it was 71.6 µM; in the test on HOP-62 NSCLC, greater than 100 µM.
With `CC(=O)C(=O)NC1/C=C(C)\C=C/C(O)C/C=C(C)\C=C/C(O)CC2OC(=O)C1(C)C(=O)C2C` (stereo not drawn), the TGI in the test on HOP-92 NSCLC, with SN12C renal, with K-562 leukemia, in the test on SK-MEL-5 melanoma, in the test on NCI-H460 lung and in the test on COLO 205 colon was greater than 100 µM each time. In addition, the TGI in the test on EKVX NSCLC, in the test with SF-295 CNS, in the test with OVCAR-3 ovarian, with OVCAR-4 ovarian, in the test with OVCAR-8 ovarian and with MOLT-4 leukemia was greater than 100 µM in each case. In addition, the TGI with HCT-116 colon, with SW-620 colon, in the test with SF-268 CNS, in the test with SNB-75 CNS, in the test on UACC-62 melanoma and in the test on SK-OV-3 ovarian was greater than 100 µM each time. In addition, the TGI in the test on RXF 393 renal and with HOP-62 NSCLC was greater than 100 µM each time.
Turning to `O=C1CC(/C=C/c2ccco2)=C(O)C1=O`, the TGI in the test with HOP-92 NSCLC turned out to be 28.4 µM; in the test on SN12C renal it was 27.7 µM; in the test with K-562 leukemia, 49 µM; in the test with SK-MEL-5 melanoma it was 26.5 µM; with NCI-H460 lung, 35.6 µM; with COLO 205 colon it was 29.2 µM. In addition, the TGI with EKVX NSCLC is 37.6 µM; in the test with SF-295 CNS it was 40.9 µM; in the test with OVCAR-3 ovarian it was 27.1 µM; in the test on OVCAR-4 ovarian, 27.3 µM; with OVCAR-8 ovarian, 30 µM; in the test with MOLT-4 leukemia it was 60.8 µM. Also, the TGI worked out at 30.4 µM in the test on HCT-116 colon; 31.6 µM with SW-620 colon; 75 µM in the test on SF-268 CNS; 32.9 µM in the test on SNB-75 CNS; 30.1 µM with UACC-62 melanoma; 54.5 µM in the test with SK-OV-3 ovarian. Moreover, the TGI in the test with RXF 393 renal was 21.7 µM; in the test with HOP-62 NSCLC, 9.07 µM.

The values are drawn from PubChem BioAssay (NCI).
